Source: PubChem BioAssay (NCI)
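Following 48 hours of exposure in 96-well plates, responses at five concentrations were used to interpolate endpoints linearly. GI50: concentration for 50% inhibition of growth. TGI: total growth inhibition.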

Assays:
Assay in all cases: growth of human tumour cells (NCI), 48 h
SNB-75 CNS = tested on: SNB-75 CNS
CCRF-CEM leukemia = tested on: CCRF-CEM leukemia
DU-145 prostate = tested on: DU-145 prostate
MDA-MB-231 breast = tested on: MDA-MB-231 breast
UO-31 renal = tested on: UO-31 renal
SF-539 CNS = tested on: SF-539 CNS
NCI/ADR-RES ovarian = tested on: NCI/ADR-RES ovarian
EKVX NSCLC = tested on: EKVX NSCLC
SF-295 CNS = tested on: SF-295 CNS
RXF 393 renal = tested on: RXF 393 renal
SK-OV-3 ovarian = tested on: SK-OV-3 ovarian
SR leukemia = tested on: SR leukemia
SNB-19 CNS = tested on: SNB-19 CNS
PC-3 prostate = tested on: PC-3 prostate
SN12C renal = tested on: SN12C renal
OVCAR-3 ovarian = tested on: OVCAR-3 ovarian
MALME-3M melanoma = tested on: MALME-3M melanoma
OVCAR-4 ovarian = tested on: OVCAR-4 ovarian
MDA-MB-435 = tested on: MDA-MB-435
HCT-15 colon = tested on: HCT-15 colon
OVCAR-5 ovarian = tested on: OVCAR-5 ovarian
HCC-2998 colon = tested on: HCC-2998 colon
ACHN renal = tested on: ACHN renal
BT-549 breast = tested on: BT-549 breast
CAKI-1 renal = tested on: CAKI-1 renal
UACC-62 melanoma = tested on: UACC-62 melanoma
IGROV1 ovarian = tested on: IGROV1 ovarian
K-562 leukemia = tested on: K-562 leukemia
SK-MEL-28 melanoma = tested on: SK-MEL-28 melanoma
MOLT-4 leukemia = tested on: MOLT-4 leukemia
TK-10 renal = tested on: TK-10 renal
MCF7 breast = tested on: MCF7 breast
HOP-92 NSCLC = tested on: HOP-92 NSCLC
NCI-H460 lung = tested on: NCI-H460 lung
786-0 renal = tested on: 786-0 renal
NCI-H23 lung = tested on: NCI-H23 lung
COLO 205 colon = tested on: COLO 205 colon
SF-268 CNS = tested on: SF-268 CNS
HS 578T breast = tested on: HS 578T breast
HT29 colon = tested on: HT29 colon
KM12 colon = tested on: KM12 colon
A498 renal = tested on: A498 renal
SK-MEL-2 melanoma = tested on: SK-MEL-2 melanoma
A549 NSCLC = tested on: A549 NSCLC
SK-MEL-5 melanoma = tested on: SK-MEL-5 melanoma
HL-60(TB) leukemia = tested on: HL-60(TB) leukemia
SW-620 colon = tested on: SW-620 colon
NCI-H226 lung = tested on: NCI-H226 lung
U251 CNS = tested on: U251 CNS
RPMI-8226 leukemia = tested on: RPMI-8226 leukemia
HOP-62 NSCLC = tested on: HOP-62 NSCLC
OVCAR-8 ovarian = tested on: OVCAR-8 ovarian
M14 melanoma = tested on: M14 melanoma
HCT-116 colon = tested on: HCT-116 colon
UACC-257 melanoma = tested on: UACC-257 melanoma
NCI-H522 lung = tested on: NCI-H522 lung

## C=C(C)[C@@H]1CC[C@]2(COP(=O)(OCC)OCC)CC[C@]3(C)[C@H](CC[C@@H]4[C@@]5(C)CCCNC(C)(C)[C@@H]5CC[C@]43C)[C@@H]12
SNB-75 CNS
  GI50: 1220 nM
  TGI: 2850 nM
CCRF-CEM leukemia
  GI50: 1710 nM
  TGI: 3850 nM
DU-145 prostate
  GI50: 1790 nM
  TGI: 3390 nM
MDA-MB-231 breast
  GI50: 1750 nM
  TGI: 3330 nM
UO-31 renal
  GI50: 1440 nM
  TGI: 2810 nM
SF-539 CNS
  GI50: 1730 nM
  TGI: 3240 nM
NCI/ADR-RES ovarian
  GI50: 1660 nM
  TGI: 3260 nM
EKVX NSCLC
  GI50: 1460 nM
  TGI: 2880 nM
SF-295 CNS
  GI50: 1680 nM
  TGI: 3150 nM
RXF 393 renal
  GI50: 1550 nM
  TGI: 2910 nM
SK-OV-3 ovarian
  GI50: 1690 nM
  TGI: 3250 nM
SR leukemia
  GI50: 1410 nM
  TGI: 4090 nM
SNB-19 CNS
  GI50: 1710 nM
  TGI: 3170 nM
PC-3 prostate
  GI50: 1590 nM
  TGI: 2980 nM
SN12C renal
  GI50: 1570 nM
  TGI: 3150 nM
OVCAR-3 ovarian
  GI50: 1670 nM
  TGI: 3380 nM
MALME-3M melanoma
  GI50: 1680 nM
  TGI: 3370 nM
OVCAR-4 ovarian
  GI50: 1540 nM
  TGI: 3130 nM
MDA-MB-435
  GI50: 1730 nM
  TGI: 3180 nM
HCT-15 colon
  GI50: 1560 nM
  TGI: 3050 nM
OVCAR-5 ovarian
  GI50: 1720 nM
  TGI: 3140 nM
HCC-2998 colon
  GI50: 1720 nM
  TGI: 3220 nM
ACHN renal
  GI50: 1730 nM
  TGI: 3140 nM
BT-549 breast
  GI50: 1680 nM
  TGI: 3090 nM
CAKI-1 renal
  GI50: 1500 nM
  TGI: 2990 nM
UACC-62 melanoma
  GI50: 1700 nM
  TGI: 3200 nM
IGROV1 ovarian
  GI50: 1610 nM
  TGI: 3180 nM
K-562 leukemia
  GI50: 1660 nM
  TGI: 7000 nM
SK-MEL-28 melanoma
  GI50: 1750 nM
  TGI: 3180 nM
MOLT-4 leukemia
  GI50: 1850 nM
  TGI: 4720 nM
TK-10 renal
  GI50: 1860 nM
  TGI: 3580 nM
MCF7 breast
  GI50: 1330 nM
  TGI: 2970 nM
HOP-92 NSCLC
  GI50: 1230 nM
  TGI: 2570 nM
NCI-H460 lung
  GI50: 1790 nM
  TGI: 4620 nM
786-0 renal
  GI50: 1710 nM
  TGI: 3210 nM

## O=C(Nc1ccc(F)c(F)c1)c1cc(-c2ccc(F)cc2F)ccc1O
NCI-H23 lung
  GI50: 1070 nM
  TGI: 3230 nM
COLO 205 colon
  GI50: 10600 nM
  TGI: 30500 nM
SF-268 CNS
  GI50: 1580 nM
  TGI: > 50000 nM
SNB-75 CNS
  GI50: 906 nM
  TGI: 2720 nM
HS 578T breast
  GI50: 1610 nM
  TGI: > 50000 nM
HT29 colon
  GI50: 13800 nM
  TGI: > 50000 nM
CCRF-CEM leukemia
  GI50: 1620 nM
  TGI: > 50000 nM
KM12 colon
  GI50: 1670 nM
  TGI: 6650 nM
DU-145 prostate
  GI50: 1850 nM
  TGI: > 50000 nM
A498 renal
  GI50: 636 nM
  TGI: 2070 nM
SF-539 CNS
  GI50: 1730 nM
  TGI: > 50000 nM
SK-MEL-2 melanoma
  GI50: 979 nM
  TGI: 2860 nM
A549 NSCLC
  GI50: 1570 nM
  TGI: > 50000 nM
EKVX NSCLC
  GI50: 1380 nM
  TGI: 15700 nM
SF-295 CNS
  GI50: 1200 nM
  TGI: 3580 nM
RXF 393 renal
  GI50: 1250 nM
  TGI: 3870 nM
SK-MEL-5 melanoma
  GI50: 694 nM
  TGI: 1670 nM
SK-OV-3 ovarian
  GI50: 1370 nM
  TGI: 4700 nM
SR leukemia
  GI50: 1920 nM
  TGI: > 50000 nM
SNB-19 CNS
  GI50: 1650 nM
  TGI: > 50000 nM
PC-3 prostate
  GI50: 1490 nM
  TGI: > 50000 nM
HL-60(TB) leukemia
  GI50: 1110 nM
  TGI: 2810 nM
SN12C renal
  GI50: 1090 nM
  TGI: 4630 nM
SW-620 colon
  GI50: 1790 nM
  TGI: > 50000 nM
MALME-3M melanoma
  GI50: 1010 nM
  TGI: 3070 nM
OVCAR-4 ovarian
  GI50: 1370 nM
  TGI: > 50000 nM
MDA-MB-435
  GI50: 1430 nM
  TGI: 6510 nM
HCT-15 colon
  GI50: 1430 nM
  TGI: 6230 nM
OVCAR-5 ovarian
  GI50: 1550 nM
  TGI: > 50000 nM
NCI-H226 lung
  GI50: 1510 nM
  TGI: 10100 nM
HCC-2998 colon
  GI50: 1490 nM
  TGI: > 50000 nM
ACHN renal
  GI50: 1460 nM
  TGI: 4550 nM
BT-549 breast
  GI50: 1060 nM
  TGI: 7180 nM
U251 CNS
  GI50: 1480 nM
  TGI: > 50000 nM
RPMI-8226 leukemia
  GI50: 768 nM
  TGI: 2720 nM
CAKI-1 renal
  GI50: 1100 nM
  TGI: 3520 nM
UACC-62 melanoma
  GI50: 628 nM
  TGI: 2410 nM
HOP-62 NSCLC
  GI50: 1590 nM
  TGI: 6150 nM
IGROV1 ovarian
  GI50: 1810 nM
  TGI: > 50000 nM
OVCAR-8 ovarian
  GI50: 1650 nM
  TGI: > 50000 nM
K-562 leukemia
  GI50: 1370 nM
  TGI: > 50000 nM
SK-MEL-28 melanoma
  GI50: 1410 nM
  TGI: 19100 nM
M14 melanoma
  GI50: 1630 nM
  TGI: 9820 nM
MOLT-4 leukemia
  GI50: 1540 nM
  TGI: 5860 nM
TK-10 renal
  GI50: 1700 nM
  TGI: > 50000 nM
MCF7 breast
  GI50: 1180 nM
  TGI: > 50000 nM
HCT-116 colon
  GI50: 1120 nM
  TGI: 5940 nM
HOP-92 NSCLC
  GI50: 684 nM
  TGI: 2640 nM
NCI-H460 lung
  GI50: 1460 nM
  TGI: > 50000 nM
786-0 renal
  GI50: 1120 nM
  TGI: 2900 nM
UACC-257 melanoma
  GI50: 781 nM
  TGI: 3600 nM
NCI-H522 lung
  GI50: 923 nM
  TGI: > 50000 nM
